Experimental data from paper PMC9993459, “A novel selective spleen tyrosine kinase inhibitor SKI-O-703 (cevidoplenib) ameliorates lupus nephritis and serum-induced arthritis in murine models” (Clinical and Experimental Immunology, 2022).
Entries after “also recorded” stand apart in the source; their conditions may differ.

Columns and labels:
human peripheral T cells = test: IL-2 production by activated T cells (ELISA); assay type: cell-based; settings: fold lower than tofacitinib
Procedure: (§1) Supplementary F igure 1. SKI -O-592 and - 703 s p a re TCR- mediated signaling in T cells
(§2) (A) The stru cture of SKI-O-703. (B-D) Human per ipheral T cells sorted fro m human peripheral blood mononuclear cells (B and D) and mouse primary T cells sorted from spleen (C ) wer e stimulated with 5 µ g/ml anti- CD3 and 2 µ g/ml anti- CD28 m Abs in the presence or absence of inhibitors as indicated. Af ter one hour (B) and 24 h ours (C and D) of culture, cells we re assaye d […]
(§3) by immunoblotting (B), FA C S ( C), and ELISA (D). […]
(§4) of Zap70 and its downstream target PLCγ1. It’s effect on the suppression of IL-2 production […]
(§5) Supplementary F igure 2. Gating strategy for FACS of spleen cells
(§6) Erythrocyte-d epleted mo use spleen cells w ere assayed by FACS. Whole live cells were gated as shown: plasma cells (C D19lo/- CD138hi), GC B cells (CD19+ CD138- GL-7h i FA S hi), follicular B cells (CD19+ CD43- CD23hi CD21-), marginal zone B cells (CD19+ C D43- CD21hi CD23lo ), and Tfh cells (CD4+ CXCR5+ PD-1hi).
(§7) Supplementary Figure 3. Differential susceptibility of short-lived and long-lived plasma […]
(§8) When spleen cells from NZB/W mice were assay ed by FACS as in Fig. 5, they were stained intracellularly with anti- Ki-67 mAb to distinguish Ki-67+ dividing cells from Ki-67- non-dividing cells among t h e CD138hi population. […]

KOR = test: Kinase assay (LANCE Ultra TR-FRET), KOR; assay type: biochemical
Procedure: Kinase assays were conducted in 384-well plates using LANCE ultra 66 time-resolved fluorescence resonance energy transfer (TR-FRET) methods, according to the manufacturer’s instructions (Perkin-Elmer). In brief, each kinase was pre-incubated with a serially diluted compound for 30 min, incubated with ULight poly-GT peptide substrate and ATP for up to 1 h. Thirty minutes after adding Eu-labeled anti-phosphopeptides Ab diluted in LANCE Detection Buffer, LANCE signals were measured with an EnVision multilabel reader (Perkin-Elmer).

[1] = system: Syk phosphorylation (Y525/526), BLNK, PLCγ1, Vav1; test: Immunoblotting of phosphorylated Syk and downstream molecules in Ramos cells, human primary monocytes and THP-1 cells; assay type: cell-based; settings: all three cell lines, dose-dependent, more potent than R406
Procedure: THP-1 and Ramos cell lines and human CD14^+ monocytes were purchased from the American Type Culture Collection (ATCC) and Lonza, respectively. After treatment with Syk inhibitors for 1 h, THP-1 cells and monocytes were stimulated for 15 min with 100 μg/ml human IgG (Invitrogen), and Ramos cells were stimulated with 2 μg/ml anti-human IgM monoclonal Ab (mAb) (Bathyl). Cells were lysed in RIPA buffer containing 1% NP-40, 1% sodium deoxycholate, 0.1% SDS, and a mixture of protease and phosphatase inhibitors (Thermo Scientific). The lysates were assayed by standard immunoblotting methods and ELISA. Primary Abs used for immunoblotting were anti-phospho-Syk ([…]), anti-phospho-Vav (Y174), anti-phospho-PLCγ1 (Y1217) and anti-phospho-BLNK (Y96) Abs (all from Cell Signaling). ELISAs to detect phospho-Syk (Y525/526) were performed according to the manufacturer’s protocol (Cell Signaling).
Figure 1: in vitro inhibitory effects of SKI-O-592 and -703 on Syk in B cells and monocytes. […] The relative intensities of protein phosphorylation levels were quantitated with reference to each lane of β-actin control bands. (D) Ramos cells, human primary monocytes, and THP cells were treated as in A–C for 24 h and levels of phosphorylated Syk (p-Syk) were measured by ELISA. […] A representative FACS profile and data on the dose-response of mean fluorescence intensity (MFI) are shown. […]

mouse primary T cells = test: Annexin V/7-AAD apoptosis assay in TCR-engaged primary T cells; assay type: cell-based; settings: up to 5 μM
Procedure: as §1, §2, §3, §4, §5, §6, §7, §8

mouse primary B cells = test: CP670-dilution proliferation assay, LPS-stimulated B cells; assay type: cell-based; settings: 72 h
Procedure: Splenic CD19^+ B cells from C57BL/6 mice were sorted by MACS (Milteny Biotec), stained with 3 μM cell proliferation dye eFluor 670 (CP670; eBioscience), and cultured for 72 h in the presence of either 10 μg/ml LPS (Sigma Aldrich) or 5 μg/ml anti-mouse IgM (Jackson Immuno Research Laboratories), 10 μg/ml anti-CD40 mAb (Biolegend) and 10 ng/ml IL-4 (Peprotech), and assayed by FACS. To detect apoptotic cells, unstimulated cells were cultured for 24 h, stained with Annexin V and 7-aminoactinomycin D (7-AAD), and assayed by FACS.
Figure 2: in vitro effects of SKI-O -703 on the proliferation, survival, and differentiation of B cells. Mouse primary B cells were labeled with CP670, and stimulated with either anti-IgM mAb, CD40L and IL-4 (A) or LPS (B) for 72 h in the presence or absence of SKI-O-703 and tofacitinib at the indicated concentrations; they were then assayed by FACS. (C and D) Mouse primary B cells were cultured as in A and B for 24 h, stained with Annexin V and 7-AAD, and assayed by FACS. Representative FACS profiles and graphs displaying mean Annexin V-positivity are shown. (E) Human primary B cells were stimulated with CpG ODN plus IL-2 (to detect IgM and IgG) or CpG ODN 2006 plus IFN-α (to detect IL-6) in the presence or absence of inhibitors. The culture supernatants were assayed by ELISA. Graphs are expressed as % positivity relative to the controls (without inhibitor). […]

SMILES	Potency on IL-2 production relative to tofacitinib (IC50) (human peripheral T cells) [fold]	Ratio to Syk (KOR) (KOR; IC50 ratio to Syk)	IC50 (KOR; kinase activity, TR-FRET) [µM]	Phosphorylation of Syk Y525/526 and downstream BLNK, PLCγ1, Vav1 (immunoblotting) [1]	Proportions of early and late apoptotic T cells (mouse primary T cells)	Concentration required to significantly inhibit LPS-induced proliferation (mouse primary B cells)
Cc1nn(-c2ccnc(Nc3ccc4c(c3)c(C(=O)C3CC3)cn4C)n2)cc1CN1C[C@H](O)CO1 [SKI-O-592]	25	111	0.687	inhibited phosphorylation	–	–
CS(=O)(=O)O.CS(=O)(=O)O.Cc1nn(-c2ccnc(Nc3ccc4c(c3)c(C(=O)C3CC3)cn4C)n2)cc1CN1C[C@H](O)CO1 [SKI-O-703, (S)-cyclopropyl(5-((4-(4-((4-hydroxyisoxazolidin-2-yl)methyl)-3-methyl-1H-pyrazol-1-yl)pyrimidin-2-yl)amino)-1-methyl-1H-indol-3-yl)methanone dimesylate]	–	–	–	–	did not promote apoptotic cell death; also recorded: failed to increase	at least 5 μM
